According to ChEMBL document CHEMBL5500396, “Discovery, Multiparametric Optimization, and Solid-State Driven Identification of CHF-6550, a Novel Soft Dual Pharmacology Muscarinic Antagonist and β2 Agonist (MABA) for the Inhaled Treatment of Respiratory Diseases” (J Med Chem, 2024):

How the values were obtained:
[1] = molecular target: Beta-2 adrenergic receptor (Homo sapiens, UniProt P07550)
Description: Displacement of [125I]-Cyanopindolol from human beta2 adrenoceptor assessed as inhibition constant incubated for 1 hrs by Microbeta scintillation counter

in vitro [2] = conditions: rat, hepatocytes
Description: Metabolic stability in rat hepatocytes assessed as clearance measured per 10^6 cells at 1 uM incubated for 90 mins by LC-MS/MS analysis

in vitro [3] = conditions: human, plasma
Description: Stability in human plasma assessed as half-life at 5 uM incubated for 120 mins by LC-MS/MS analysis

in vitro [4] = conditions: guinea pig, plasma
Description: Stability in guinea pig plasma assessed as half-life at 5 uM incubated for 120 mins by LC-MS/MS analysis

in vitro [5] = conditions: rat, plasma
Description: Stability in rat plasma assessed as half-life at 5 uM incubated for 120 mins by LC-MS/MS analysis

in vitro [6] = conditions: human, hepatocytes
Description: Metabolic stability in human hepatocytes assessed as clearance measured per 10^6 cells at 1 uM incubated for 90 mins by LC-MS/MS analysis

Sequence of Beta-2 adrenergic receptor (P07550 whole entry): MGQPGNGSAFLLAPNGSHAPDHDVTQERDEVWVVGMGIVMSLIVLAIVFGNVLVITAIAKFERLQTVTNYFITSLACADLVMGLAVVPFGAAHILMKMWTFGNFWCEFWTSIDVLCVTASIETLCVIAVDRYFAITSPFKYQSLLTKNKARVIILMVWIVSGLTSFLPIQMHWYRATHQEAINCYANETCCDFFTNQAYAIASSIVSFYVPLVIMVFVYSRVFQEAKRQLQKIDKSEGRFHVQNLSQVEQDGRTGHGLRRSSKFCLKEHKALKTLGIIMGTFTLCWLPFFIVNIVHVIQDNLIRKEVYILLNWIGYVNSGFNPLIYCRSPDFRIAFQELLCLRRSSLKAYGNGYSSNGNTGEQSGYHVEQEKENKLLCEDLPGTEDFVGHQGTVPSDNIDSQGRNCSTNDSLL

| SMILES | Ki [1] [nM] | hepatocyte CLint at 1.5 h, 1 µM (in vitro [2]) [µL/min/1e6 cells] | half-life at 2 h, 5 µM (in vitro [3]) [min] | half-life at 2 h, 5 µM (in vitro [4]) [min] | half-life at 2 h, 5 µM (in vitro [5]) [min] | hepatocyte CLint at 1.5 h, 1 µM (in vitro [6]) [µL/min/1e6 cells] |
| --- | --- | --- | --- | --- | --- | --- |
| O=C(NCCCOc1cccc([C@](O)(C(=O)O[C@@H]2CCN(Cc3ccccc3)C2)c2ccccc2)c1)c1ccc(CNC[C@H](O)c2ccc(O)c3[nH]c(=O)ccc23)cc1 | 0.158 | 69 | > 150 | 37 | 5 | 23 |
| CN1CCC[C@@H](OC(=O)[C@](O)(c2ccccc2)c2cccc(OCCCNC(=O)c3cnc(CNC[C@H](O)c4ccc(O)c5[nH]c(=O)ccc45)nc3)c2)C1.O=CO | 0.0251 | 33 | > 150 | 8 | 13 | < 2 |
| CN1CCC[C@H](OC(=O)[C@](O)(c2ccccc2)c2cccc(OCCCNC(=O)c3ccc(CNC[C@H](O)c4ccc(O)c5[nH]c(=O)ccc45)cc3)c2)C1.O=CO.O=CO | 0.0251 | 52 | > 150 | 51 | 8 | 5 |
| O=C(NCCCOc1cccc([C@](O)(C(=O)O[C@H]2CCN(Cc3ccccc3)C2)c2ccccc2)c1)c1ccc(CNC[C@H](O)c2ccc(O)c3[nH]c(=O)ccc23)cc1 | 0.398 | 71 | > 150 | 12 | 15 | 22 |
| O=C(NCCCOc1cccc([C@](O)(C(=O)OC[C@H]2CCN(Cc3ccccc3)C2)c2ccccc2)c1)c1ccc(CNC[C@H](O)c2ccc(O)c3[nH]c(=O)ccc23)cc1 | 0.126 | 38 | > 128 | 56 | 32 | 7 |
| O=C(NCCCOc1cccc([C@](O)(C(=O)OC2CCN(Cc3ccccc3)CC2)c2ccccc2)c1)c1ccc(CNC[C@H](O)c2ccc(O)c3[nH]c(=O)ccc23)cc1 | 0.0501 | 64 | > 150 | 8 | 135 | 12 |
| O=C(NCCCOc1cccc([C@](O)(C(=O)O[C@H]2CCCN(Cc3ccccc3)C2)c2ccccc2)c1)c1ccc(CNC[C@H](O)c2ccc(O)c3[nH]c(=O)ccc23)cc1.O=CO | 0.501 | 53 | > 150 | 15 | 11 | 19 |
| O=C(NCCCOc1cccc([C@](O)(C(=O)O[C@@H]2CCCN(Cc3ccccc3)C2)c2ccccc2)c1)c1ccc(CNC[C@H](O)c2ccc(O)c3[nH]c(=O)ccc23)cc1.O=CO | 0.316 | 78 | > 150 | > 150 | 5 | 20 |
| O=C(NCCCOc1cccc([C@](O)(C(=O)OC[C@@H]2CCN(Cc3ccccc3)C2)c2ccccc2)c1)c1ccc(CNC[C@H](O)c2ccc(O)c3[nH]c(=O)ccc23)cc1 | 0.0794 | 37 | > 150 | 58 | 15 | 5 |
| CN1CCC[C@@H](OC(=O)[C@](O)(c2ccccc2)c2cccc(OCCCNC(=O)c3cccc(CNC[C@H](O)c4ccc(O)c5[nH]c(=O)ccc45)c3)c2)C1 | 2 | 28 | > 150 | 98 | 8 | 5 |
| COc1cc(C(=O)NCCCOc2cccc([C@](O)(C(=O)O[C@@H]3CCCN(C)C3)c3ccccc3)c2)c(OC)cc1CNC[C@H](O)c1ccc(O)c2[nH]c(=O)ccc12 | 0.0631 | 61 | > 150 | > 150 | > 150 | 6 |
